Laboratory results from patent publication US7034056B2, “Aryl and biaryl compounds having MCH modulatory activity” (Pharmacopeia Drug Discovery, inc., priority 2001, dated 2006).
Read-outs that look alike come from different tables or passages of the source.

Molecular target: T1, hMCHR (MCH receptor) (Homo sapiens, UniProt Q99705)
T1 construct: (or internally produced); host or cells: CHO (Chinese hamster ovary) cells, membrane preparation
Test: MCH Assay PCOP Protocol ([125I]-MCH SPA binding to hMCHR-CHO membranes);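 for Activity (Ki range): A 0.4–50 nM B 51–500 nM C 501–2500 nM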
Method in brief: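 SPA binding with 10 μg hMCHR-CHO membranes and WGA-SPA beads in 25 mM HEPES pH 7.4, 10 mM NaCl, 10 mM MgCl2, 5 mM MnCl2, 0.1% BSA.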

[1] = [125I]-MCH SPA binding, hMCHR-CHO membranes, Ki class ranges, read-out: Activity (range of Ki)
[2] = [125I]-MCH 0.5 nM, hMCHR-CHO membranes, read-out: Activity (ranges of Ki values)

T1 sequence (Q99705 whole entry): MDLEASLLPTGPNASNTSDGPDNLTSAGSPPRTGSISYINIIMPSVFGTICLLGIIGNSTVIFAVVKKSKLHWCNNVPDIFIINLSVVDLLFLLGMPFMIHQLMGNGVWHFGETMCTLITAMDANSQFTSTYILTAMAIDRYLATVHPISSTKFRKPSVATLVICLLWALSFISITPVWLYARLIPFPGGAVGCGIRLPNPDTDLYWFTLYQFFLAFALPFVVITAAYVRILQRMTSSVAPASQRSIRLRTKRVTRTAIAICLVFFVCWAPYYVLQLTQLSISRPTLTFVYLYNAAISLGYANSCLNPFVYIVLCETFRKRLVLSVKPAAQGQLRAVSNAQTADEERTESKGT

Row | Ki [1] [nM] | Ki [2] [nM] | SMILES | further results
1 | 501 to 2500 |  | COc1ccc2c(CCNCCC(CNC(=O)Nc3cc(C(F)(F)F)cc(C(F)(F)F)c3)c3ccc(Cl)c(Cl)c3)c[nH]c2c1 (centres unmarked) [Example 437] | 
2 |  | 51 to 500 | O=C(NCC(CCNC1CCCC1)c1cccc(-c2ccc(F)cc2)c1)Nc1cc(Cl)cc(Cl)c1 (centres unmarked) [Example 155] | 
3 |  | 501 to 2500 | CN(C)CCCNCCC(CNC(=O)Nc1cc(Cl)cc(Cl)c1)c1cccc(-c2cccc(C#N)c2)c1 (centres unmarked) [Example 169] | 
4 |  |  | COc1cc(NC(=O)NCC(CCN2CCC(N3CCCCC3)CC2)c2ccc(Cl)c(Cl)c2)cc(OC)c1 (centres unmarked) [Example 370] | Ki ([125I]-MCH binding to hMCHR-CHO membranes, class symbols for ranges of Ki, read-out: Activity (Ki range)): 501 to 2500 nM
5 | 501 to 2500 |  | CCCCN(CCC(CNC(=O)Nc1cc(C(F)(F)F)cc(C(F)(F)F)c1)c1ccc(Cl)c(Cl)c1)C1CC1 (centres unmarked) [Example 440] | 
